Experimental data: patent publication US8951993B2, “Phosphorus containing compounds as protein kinase inhibitors” (Jiangsu Hansoh Pharmaceutical Co., Ltd., priority 2011, dated 2015)

Legend:
[1] = tested on: Karpas299; assay: Cell proliferation assay (MTS / BrdU), Karpas299; assay type: cell-based; conditions: Homo sapiens, KARPAS-299; 72 hours, 2% FBS
Method: (§1) Karpas299 and SU-DHL-1 cells were purchased from Deutsche Sammlung von Mikroorganismen and Zellkulturen (Germany). H2228 was purchased from American Type Culture Collection (USA). All cells were cultured in the recommended medium and serum concentration. Cells were maintained at 37° C. in a humidified atmosphere with 5% CO2. For ALK kinase phosphorylation, cells were seeded in 96-well plates overnight in medium supplemented with 10% fetal bovine serum […]. After 24 hours, the medium was removed and cells were cultured in serum-free medium at 37° C. in the presence of various concentrations of the test articles for 1 hour. After incubation with the tested articles, cells were washed once with HBSS supplemented with 1 mM Na3VO4 and protein lysates were generated. Subsequently, phosphorylation of ALK was assessed by a sandwich ELISA method using an immobilized anti-total-ALK antibody and an anti-phospho-ALK antibody (pY1604) as a detection antibody. IC50 value was calculated using median-effect method. (Chou 2006).
(§2) For cell proliferation assay, cells were seeded in 96-well pates at low density at 37° C. in medium supplemented with 10% FBS and after 24 hours were switched to low serum medium (2% FBS). Cells were further incubated in the presence of the test articles at various concentrations at 37° C. for 72 hours. Two assays were employed to determine the relative cell numbers. One is a 3-(4,5-dimethylthiazol-2-yl)-5-(3-carboxymethoxyphenyl)-2-(4-sulfophenyl)-2H-tetrazolium (MTS) assay using a CellTiter 96® Aqueous Non-Radioactive Cell Proliferation kit (Promega), and the other is a BrdU incorporation assay using a DELFIA® Cell Proliferation Kit (Perkin Elmer). IC50 value was calculated using median-effect method (Chou 2006).

[2] = tested on: SU-DHL-1; assay: Cell proliferation assay (MTS / BrdU), SU-DHL-1; assay type: cell-based; conditions: Homo sapiens, 72 hours, 2% FBS
Method: as §1, §2

[3] = tested on: H2228; assay: Cell proliferation assay (MTS / BrdU), H2228; assay type: cell-based; conditions: Homo sapiens, NCI-H2228; 72 hours, 2% FBS
Method: as §1, §2

[4] = Pharmacokinetic assay, intravenous and oral administration; assay type: in vivo, Sprague-Dawley rats or beagle dogs; conditions: plasma; for half-life: after oral administration in rats or dogs; for bioavailability: oral administration in rats or dogs, read-out: oral bioavailabilty
Method: The tested articles were given to Sprague-Dawley rats or beagle dogs by intravenous and oral administration. Plasma samples were prepared from blood samples which were collected at various time points. The plasma concentrations of the tested articles were determined by specific LC-MS/MS analytical methods. Pharmacokinetic parameters were calculated with WinNonlin®.

[5] = target: T1, ALK (Homo sapiens, UniProt Q9UM73); assay: ALK enzyme activity assay (HTRF KinEASE); assay type: biochemical; design: purchased Millipore Company (Billerica, Mass., USA); conditions: ATP 25 μM, 30° C. 30 minutes
Method: ALK Enzyme Activity Assay:
ALK kinase was purchased from Millipore Company (Billerica, Mass., USA). HTRF®KinEASET™ was purchased from Cisbio Company (Bedford, Mass., USA). The assay was conducted according to the procedure provided in the assay kit. In brief, incubation was carried out in the kinase buffer containing ALK (0.3 ng/μL), ATP (25 μM), TK substrate-biotin (10 μM), DTT (1 mM), MgCl2 (5 mM), MnCl2 (5 mM) in the presence of the tested articles at various concentrations in 384-well plate at 30° C. for 30 minutes. The reaction was stopped by addition of Sa-XL665 in EDTA solution, and the phosphorylated substrate was detected with a proprietary phospho-specific monoclonal antibody labeled with Eu^3+-Cryptate and a proprietary biotinylated kinase substrate detected using XL665 labeled streptavidin. IC50 value was calculated using median-effect method (Chou 2006).
Target sequence in this assay (Q9UM73 19-1620): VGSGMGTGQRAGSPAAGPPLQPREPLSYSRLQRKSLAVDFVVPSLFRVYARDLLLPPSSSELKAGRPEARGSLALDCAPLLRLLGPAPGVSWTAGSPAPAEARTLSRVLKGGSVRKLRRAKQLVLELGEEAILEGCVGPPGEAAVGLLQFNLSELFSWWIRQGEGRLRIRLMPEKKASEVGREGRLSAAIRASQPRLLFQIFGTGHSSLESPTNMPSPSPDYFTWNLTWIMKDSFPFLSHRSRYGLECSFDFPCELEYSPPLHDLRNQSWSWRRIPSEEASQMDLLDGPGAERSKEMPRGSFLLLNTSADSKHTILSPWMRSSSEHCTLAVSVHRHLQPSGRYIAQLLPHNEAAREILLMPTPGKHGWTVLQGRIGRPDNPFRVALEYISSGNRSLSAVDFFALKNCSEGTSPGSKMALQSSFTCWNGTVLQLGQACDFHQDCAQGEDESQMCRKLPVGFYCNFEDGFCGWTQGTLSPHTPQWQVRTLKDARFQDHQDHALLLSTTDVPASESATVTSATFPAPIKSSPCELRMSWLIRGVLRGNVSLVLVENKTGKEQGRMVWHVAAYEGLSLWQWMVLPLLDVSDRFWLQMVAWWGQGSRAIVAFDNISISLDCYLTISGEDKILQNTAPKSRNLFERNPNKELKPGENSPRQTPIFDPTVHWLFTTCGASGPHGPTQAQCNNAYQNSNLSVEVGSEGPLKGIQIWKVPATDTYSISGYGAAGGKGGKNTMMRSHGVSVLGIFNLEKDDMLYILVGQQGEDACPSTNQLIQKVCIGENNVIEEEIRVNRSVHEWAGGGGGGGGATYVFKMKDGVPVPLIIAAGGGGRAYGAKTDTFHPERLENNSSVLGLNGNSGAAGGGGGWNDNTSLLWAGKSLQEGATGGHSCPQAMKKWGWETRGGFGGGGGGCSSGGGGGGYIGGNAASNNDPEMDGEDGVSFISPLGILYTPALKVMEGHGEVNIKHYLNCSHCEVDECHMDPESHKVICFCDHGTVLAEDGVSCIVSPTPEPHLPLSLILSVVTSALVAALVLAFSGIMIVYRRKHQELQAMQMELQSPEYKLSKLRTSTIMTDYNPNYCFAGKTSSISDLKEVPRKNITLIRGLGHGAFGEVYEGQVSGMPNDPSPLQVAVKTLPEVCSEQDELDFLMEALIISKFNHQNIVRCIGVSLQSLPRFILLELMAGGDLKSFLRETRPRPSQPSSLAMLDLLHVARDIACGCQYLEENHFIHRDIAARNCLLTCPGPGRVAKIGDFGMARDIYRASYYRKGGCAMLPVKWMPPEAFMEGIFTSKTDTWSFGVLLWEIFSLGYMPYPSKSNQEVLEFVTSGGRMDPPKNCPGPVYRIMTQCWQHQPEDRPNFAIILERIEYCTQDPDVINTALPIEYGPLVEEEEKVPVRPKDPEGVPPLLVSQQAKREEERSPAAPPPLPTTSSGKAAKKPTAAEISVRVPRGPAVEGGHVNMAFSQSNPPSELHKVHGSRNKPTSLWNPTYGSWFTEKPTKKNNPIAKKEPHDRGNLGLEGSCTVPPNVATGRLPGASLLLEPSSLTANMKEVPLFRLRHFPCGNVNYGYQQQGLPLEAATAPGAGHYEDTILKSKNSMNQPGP

[6] = target: T1, ALK; assay: Inhibition of ALK phosphorylation (sandwich ELISA, pY1604), cell line not given; assay type: cell-based; design: fused on or other part: Q9HC35 (Echinoderm microtubule-associated protein-like 4); conditions: 1 hour, serum-free
Method: as §1
Target sequence in this assay (Q9UM73 1058-1620 limits assumed): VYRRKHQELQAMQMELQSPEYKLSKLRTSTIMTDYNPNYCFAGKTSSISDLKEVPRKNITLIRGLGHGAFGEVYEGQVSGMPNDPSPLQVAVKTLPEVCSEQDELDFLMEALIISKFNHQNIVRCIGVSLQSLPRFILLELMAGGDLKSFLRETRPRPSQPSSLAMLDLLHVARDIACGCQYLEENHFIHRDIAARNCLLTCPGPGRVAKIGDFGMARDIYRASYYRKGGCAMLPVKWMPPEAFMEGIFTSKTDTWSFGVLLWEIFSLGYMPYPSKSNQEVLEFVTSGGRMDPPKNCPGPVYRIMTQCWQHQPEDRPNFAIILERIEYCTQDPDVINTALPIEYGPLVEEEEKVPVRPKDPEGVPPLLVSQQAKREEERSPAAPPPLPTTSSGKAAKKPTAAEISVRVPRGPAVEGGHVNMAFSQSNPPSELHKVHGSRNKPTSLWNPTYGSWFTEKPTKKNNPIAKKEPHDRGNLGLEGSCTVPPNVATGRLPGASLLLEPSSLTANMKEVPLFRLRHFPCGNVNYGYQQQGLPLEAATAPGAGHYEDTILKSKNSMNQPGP

[7] = target: T1, ALK; assay: Inhibition of ALK phosphorylation (sandwich ELISA, pY1604) in Karpas299 cells; assay type: cell-based; design: NPM1 portion (fusion partner, nucleophosmin, P06748); host or cells: Karpas299; SU-DHL-1; the other entry of the earlier key: NPM1 (P06748, Nucleophosmin); conditions: 1 hour, serum-free
Method: as §1
Target sequence in this assay (Q9UM73 with tags, fused parts or gaps): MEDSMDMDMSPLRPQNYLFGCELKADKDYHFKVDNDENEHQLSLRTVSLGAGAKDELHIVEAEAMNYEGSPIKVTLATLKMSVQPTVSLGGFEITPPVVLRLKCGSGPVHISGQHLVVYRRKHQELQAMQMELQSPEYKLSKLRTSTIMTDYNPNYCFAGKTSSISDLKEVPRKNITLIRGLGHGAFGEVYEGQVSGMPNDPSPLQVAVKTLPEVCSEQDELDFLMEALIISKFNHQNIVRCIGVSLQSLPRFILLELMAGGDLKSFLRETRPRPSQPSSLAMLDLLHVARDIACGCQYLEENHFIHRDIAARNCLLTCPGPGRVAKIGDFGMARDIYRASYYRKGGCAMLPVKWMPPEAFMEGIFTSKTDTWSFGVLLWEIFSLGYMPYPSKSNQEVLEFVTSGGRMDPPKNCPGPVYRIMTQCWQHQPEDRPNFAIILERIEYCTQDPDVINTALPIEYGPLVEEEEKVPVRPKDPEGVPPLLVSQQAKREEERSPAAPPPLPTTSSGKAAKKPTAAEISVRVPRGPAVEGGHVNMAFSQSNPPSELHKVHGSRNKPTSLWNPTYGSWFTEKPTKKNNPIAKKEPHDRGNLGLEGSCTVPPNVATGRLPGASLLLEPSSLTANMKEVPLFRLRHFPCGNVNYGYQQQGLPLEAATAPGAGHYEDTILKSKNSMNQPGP

[8] = target: T1, ALK; assay: Inhibition of ALK phosphorylation (sandwich ELISA, pY1604) in SU-DHL-1 cells; assay type: cell-based; design: NPM1 portion (fusion partner, nucleophosmin, P06748); host or cells: Karpas299; SU-DHL-1; the other entry of the earlier key: NPM1 (P06748, Nucleophosmin); conditions: 1 hour, serum-free
Method: as §1
Target sequence in this assay (Q9UM73 with tags, fused parts or gaps): as above

| IC50 [1] | IC50 [2] | IC50 [3] | half-life [4] | bioavailability [4] | IC50 [5] | IC50 [6] | IC50 [7] | IC50 [8] | SMILES |
| --- | --- | --- | --- | --- | --- | --- | --- | --- | --- |
| 100 to 500 nM | < 100 nM | < 100 nM | > 3 h | > 20% | 100 to 500 nM | < 500 nM | < 100 nM |  | CC(Oc1cc(-c2ccc(P(C)(C)=O)cc2)cnc1N)c1c(Cl)ccc(F)c1Cl (centres unmarked) [Example 1, 3-[1-(2,6-dichloro-3-fluoro-phenyl)ethoxy]-5-(4-dimethylphosphorylphenyl)pyridin-2-amine] |
| < 100 nM | < 100 nM | < 100 nM | > 3 h | > 20% | < 100 nM |  | < 100 nM | < 50 nM | COc1cc(P(C)(C)=O)ccc1-c1cnc(N)c(OC(C)c2c(Cl)ccc(F)c2Cl)c1 (centres unmarked) [Example 8, 3-[1-(2,6-dichloro-3-fluoro-phenyl)ethoxy]-5-(4-dimethylphosphoryl-2-methoxy-phenyl)pyridin-2-amine] |
| < 100 nM | < 100 nM | < 100 nM |  |  | 100 to 500 nM | < 50 nM | < 100 nM | < 50 nM | C[C@@H](Oc1cc(-c2ccc(P(C)(C)=O)cc2)cnc1N)c1c(Cl)ccc(F)c1Cl [Example 23, 3-[(1R)-1-(2,6-dichloro-3-fluoro-phenyl)ethoxy]-5-(4-dimethylphosphorylphenyl)pyridin-2-amine] |
